The text below walks through data of patent US8188138B2, “Sulphonylpyrrole hydrochloride salts as histone deacetylases inhibitors” (4SC AG, priority 2005, dated 2012).

Data set [1] has as its system HeLa cervical carcinoma cells. As to the kind of experiment: Cellular cytotoxicity assay (Alamar Blue), HeLa. Type of data set: cell-based. The conditions noted are these: Homo sapiens, 72 h, range stated for the listed group. On the procedure: (§1) The anti-proliferative activity of the histone deacetylase inhibitory compounds as described herein, was evaluated using the following cell lines: HeLa and HeLa—KB (cervical carcinoma), H460 (non small cell lung cancer), A549 (non-small cell lung cancer), MCF7 (breast carcinoma), MCF10A (normal, non tumorigenic breast epithelial), MDA-MB468 (breast carcinoma), MDA-MB435 (breast carcinoma), MDA-MB231 (breast carcinoma), SKBR-3 (breast carcinoma), SKOV-3 (ovarial carcinoma), A-2780 (ovarial carcinoma), RKO (colon carcinoma), HCT-15 (colon carcinoma), HCT-116 (colon carcinoma), PC3 (prostate carcinoma), BPH1 (benign prostate hyperplasia), AsPC1 (pancreatic carcinoma), Cal27 (tongue carcinoma), A-431 (vulva carcinoma), HeclA (endometrial carcinoma), Saos-2 (osteosarcoma), U87MG (glioblastoma), WM266-4 (melanoma), K562 (chronic myeloid carcinoma), EOL1 (acute hypereosinophilic myeloid leukemia), CCRF-CEM and CCRF-CEM VCR1000 (acute lymphoblastic leukemia sensitive and resistant towards Vincristine). For quantification of cellular proliferation/living cells the Alamar Blue (Resazurin) cell viability assay was applied (O'Brien et al. Eur J Biochem 267, 5421-5426, 2000). In this assay Resazurin is reduced to the fluorescent resorufin by cellular dehydrogenase activity, correlating with viable, proliferating cells. The examples were dissolved as 20 mM solutions in dimethylsulfoxide (DMSO) and subsequently diluted in semi-logarithmic steps. Cell lines were seeded at respective density into 96 well flat bottom plates in a volume of 200 μl per well. 24 hours after seeding 1 μl each of the compound dilutions were added into each well of the 96 well plate. Each compound dilution was tested as quadruplicates. Wells containing untreated control cells were filled with 200 μl DMEM medium containing 0.5% v:v DMSO. The cells were then incubated with the substances for 72 hours at 37° C. in a humidified atmosphere containing 5% carbon dioxide. To determine the viability of the cells, 20 μl of an Resazurin solution (Sigma; 90 mg/l) were added. After 4 hours incubation at 37° C. the fluorescence was measured at an extinction of 544 nm and an emission of 590 nm. For the calculation of the cell viability the emission value from untreated cells was set as 100% viability and the emission rates of treated cells were set in relation to the values of untreated cells. Viabilities were expressed as % values. The corresponding IC50 values of the compounds for cytotoxic activity are determined from the concentration-effect curves by means of non-linear regression.
Background: Alamar Blue is a resazurin reagent that responds to reducing activity.

The test system of a further data set is A549 cell line. The experiment in a line: Combination experiment with Trail in A549. The class given is cell-based. The settings on record: example at about its IC50 combined with Trail. The procedure:
A549 non-small cell lung cancer, MDA-MB468 breast cancer and […] colorectal cancer cell lines were pretreated with the examples for 4 h before adding the chemotherapeutic agents or Trail and further incubation for 72 h total. The IC50 values of these combinations were determined from concentration-effect curves and compared to IC50 values of cell treated with the anti-cancer agent only.

Data set [2] relates to MDA-MB468 breast cancer cells. As to the kind of experiment: Breast cancer cell differentiation assay (Nile Red, flow cytometry). Type of data set: cell-based. The conditions noted are these: 24 h; for Neutral & phospholipids (%): differentiated cells; for Phospholipids (%): undifferentiated cells. On the procedure: For quantification of MDA-MB468 breast cancer cell differentiation (described by Munster et al. Canc. Res. 61(23), pp 8492, 2001), 1× E6 cells were seeded in 10 cm cell culture dishes and, after cultivation for 24 h, treated with HDI for further 24 h. Finally, cells were collected by trypsination, washed twice with PBS and resuspended in 1 ml of staining solution ([…] Nile Red in PBS). After incubation for at least 5 min at room temperature, cells were analysed by flow cytometry on a FACS Calibur device (Ex 488 nm, Em. at 530 nm/FL-1 and >630 nm/FL-3). From respective histograms the percentage of cells with fluorescence at 650 nm (phospholipids) and 530 nm+650 nm (phospho- and neutral lipids) were calculated. For microscopic analysis, MDA-MB468 cells were cultivated on two-well chamber slides, treated with test compound for 24 h, fixed with 1.5 vol % glutaraldehyde/PBS and finally treated with staining solution. After washing with PBS, cells were analysed by fluorescence microscopy.
The percentage of differentiated cells with neutral and phospholipids as well as undifferentiated cells with phospholipids only are summarized in the table 5.
(In general: A flow cytometer gives signals particle by particle.)

Data set [3] deals with broad selection of non-malignant cell lines and fully transformed malignant cancer cell lines. As to the kind of experiment: Anti-proliferative activity across cell line panel (Alamar Blue). The settings on record: mean over non-malignant and malignant cell lines. The class given is cell-based. The procedure:
as §1

The test system of data set [4] is RKO colon carcinoma cells. The experiment in a line: Cell-cycle dependent cytotoxicity, RKO exop21 cell system. The class given is cell-based. The conditions noted are these: Homo sapiens, 72 h, range stated for the listed group. The procedure:
For determination of cell-cycle dependent cytotoxicity, the RKO exop21 cell system was applied (Schmidt et al. Oncogene 19: 2423-2429, 2000). Briefly, RKO cells with/without p21^waf1 expression (2×10^4 cells/well induced, 6×10^3 cells/well not induced) were treated with the examples for 72 h and metabolic activity quantified as described before. The expression of p21^waf1 was induced by treatment with Pronasterone A, causing a complete proliferation arrest of RKO cells in the G1 and G2 phases of the cell division cycle.

The term IC50 denotes the midpoint of a concentration-inhibition curve. The melting point is the temperature of the solid-liquid transition.

Where two headings read alike, the source gives them in different places.

With `O=C(/C=C/c1ccn(S(=O)(=O)c2ccc(CNCc3ccncc3)cc2)c1)NO` [Compound 16, (E)-N-Hydroxy-3-[1-(4-{[(pyridin-4-ylmethyl)-amino]-methyl}-benzenesulfonyl)-1H-pyrrol-3-yl]-acrylamide], in data set [1], the 50% inhibitory concentration (IC50) lay within 70 to 5000 nM.

The compound `NCc1ccc(S(=O)(=O)n2ccc(/C=C/C(=O)NO)c2)cc1` [Compound 17, (E)-3-[1-(4-Aminomethyl-benzenesulfonyl)-1H-pyrrol-3-yl]-N-hydroxy-acrylamide] had a melting point of 227 to 228.6 °C. This compound returned an IC50 in data set [1] of 70 to 5000 nM. The matching figures for `Nc1ccccc1NC(=O)/C=C/c1ccn(S(=O)(=O)c2ccc(-c3ccccn3)s2)c1` [Compound 26, (E)-N-(2-Amino-phenyl)-3-[1-(5-pyridin-2-yl-thiophene-2-sulfonyl)-1H-pyrrol-3-yl]-acrylamide]: 171.3 to 174.7 °C and 70 to 5000 nM. As to `O=C(/C=C/c1ccn(S(=O)(=O)c2ccc(CNCc3c[nH]c4ccccc34)cc2)c1)NO` [Compound 12, (E)-N-Hydroxy-3-[1-(4-{[(1H-indol-3-ylmethyl)-amino]-methyl}-benzenesulfonyl)-1H-pyrrol-3-yl]-acrylamide], in data set [1], the IC50 is 70 to 5000 nM. In the case of `O=C(/C=C/c1ccn(S(=O)(=O)c2ccc(-c3ccccc3)cc2)c1)NO` [Compound 3, (E)-3-[1-(Biphenyl-4-sulfonyl)-1H-pyrrol-3-yl]-N-hydroxy-acrylamide], the IC50 in data set [1] is 800 to 21600 nM; in data set [3] it was 850 nM; in data set [4] (arrested RKO cells, p21waf1 expressed, read-out: RKO arrested (p21^waf1 expressed) IC50), 450 to 15000 nM; in data set [4] (proliferating RKO cells, read-out: RKO proliferating IC50) it was 150 to 5100 nM. In the data set with A549 cell line, the “Effect of combination with Trail” value is on record as “synergism is highly likely”. In addition, the “Neutral & phospholipids (%)” value in data set [2] (0.6 μM) came to 34.6%; in data set [2] (1.2 μM), 51.2%. For the same compound, the “Phospholipids (%)” value in data set [2] (0.6 μM) is recorded as 62.6%; in data set [2] (1.2 μM), 45.7%. Regarding `O=C(/C=C/c1ccn(S(=O)(=O)c2ccc(CN3CCOCC3)cc2)c1)NO` [Compound 27, (E)-N-Hydroxy-3-[1-(4-morpholin-4-ylmethyl-benzenesulfonyl)-1H-pyrrol-3-yl]-acrylamide], the melting point was 168 to 170 °C. Also, the IC50 in data set [1] lay within 70 to 5000 nM. With `Nc1ccccc1NC(=O)/C=C/c1ccn(S(=O)(=O)c2ccc(-c3cn[nH]c3)cc2)c1` [Compound 22, (E)-N-(2-Amino-phenyl)-3-{1-[4-(1H-pyrazol-4-yl)-benzenesulfonyl]-1H-pyrrol-3-yl}-acrylamide], the melting point was in the range of 232.3 to 240.9 °C. For the same compound, the IC50 in data set [1] lay in the range of 70 to 5000 nM. With `O=C(/C=C/c1ccn(S(=O)(=O)c2ccc(CNCc3cccnc3)cc2)c1)NO` [Compound 11, (E)-N-Hydroxy-3-[1-(4-{[(pyridin-3-ylmethyl)-amino]-methyl}-benzenesulfonyl)-1H-pyrrol-3-yl]-acrylamide], in data set [1], the concentration for half-maximal inhibition (IC50) lay within 70 to 5000 nM. The same measure, in the same setting: as for `O=C(/C=C/c1ccn(S(=O)(=O)c2ccc(CNCc3ccc4[nH]ccc4c3)cc2)c1)NO` [Compound 15, (E)-N-Hydroxy-3-[1-(4-{[(1H-indol-5-ylmethyl)-amino]-methyl}-benzenesulfonyl)-1H-pyrrol-3-yl]-acrylamide], the figure is 70 to 5000 nM. `O=C(/C=C/c1ccn(S(=O)(=O)c2cccc(-c3ccccc3)c2)c1)NO` [Compound 23, (E)-3-[1-(Biphenyl-3-sulfonyl)-1H-pyrrol-3-yl]-N-hydroxy-acrylamide] returned a melting point of 114 to 159.4 °C. For the same compound, in data set [1], the IC50 lay within 70 to 5000 nM. For `CC(C)CNCc1ccc(S(=O)(=O)n2ccc(/C=C/C(=O)NO)c2)cc1` [Compound 14, (E)-N-Hydroxy-3-{1-[4-(isobutylamino-methyl)-benzenesulfonyl]-1H-pyrrol-3-yl}-acrylamide], in data set [1], the IC50 fell in the range of 70 to 5000 nM. Same read-out and setting: as for `O=C(/C=C/c1ccn(S(=O)(=O)c2ccc(CN(CCO)CCc3cc4ccccc4[nH]3)cc2)c1)NO` [Compound 28, (E)-N-Hydroxy-3-{1-[4-({(2-hydroxy-ethyl)-[2-(1H-indol-2-yl)-ethyl]-amino}-methyl)-benzenesulfonyl]-1H-pyrrol-3-yl}-acrylamide], the figure is 70 to 5000 nM. The compound `O=C(/C=C/c1ccn(S(=O)(=O)c2ccc(-c3ccncc3)cc2)c1)NO` [Compound 18, (E)-N-Hydroxy-3-[1-(4-pyridin-4-yl-benzenesulfonyl)-1H-pyrrol-3-yl]-acrylamide] came in with a melting point of 219.3 to 221.4 °C. In data set [1], this compound displayed an IC50 of 70 to 5000 nM. The matching figures for `O=C(/C=C/c1ccn(S(=O)(=O)c2ccc(-n3cccn3)cc2)c1)NO` [Compound 25, (E)-N-Hydroxy-3-[1-(4-pyrazol-1-yl-benzenesulfonyl)-1H-pyrrol-3-yl]-acrylamide]: 160.7 to 166.6 °C and 70 to 5000 nM. Consider `O=C(/C=C/c1ccn(S(=O)(=O)c2ccc(-c3cn[nH]c3)cc2)c1)NO` [Compound 19, (E)-N-Hydroxy-3-[1-[4-(1H-pyrazol-4-yl)-benzenesulfonyl]-1H-pyrrol-3-yl]acrylamide], for which the half-maximal inhibitory concentration (IC50) in data set [1] lay within 70 to 5000 nM.

Take `Nc1ccccc1NC(=O)/C=C/c1ccn(S(=O)(=O)c2ccc(-c3cccnc3)cc2)c1` [Compound 21, (E)-N-(2-Amino-phenyl)-3-[1-(4-pyridin-3-yl-benzenesulfonyl)-1H-pyrrol-3-yl]-acrylamide]: the melting point was 199.7 to 202.3 °C. Besides, the IC50 in data set [1] fell in the range of 70 to 5000 nM. The compound `CN(C)c1ccc(S(=O)(=O)n2ccc(/C=C/C(=O)Nc3ccccc3N)c2)cc1` [Compound 8, (E)-N-(2-Amino-phenyl)-3-[1-(4-dimethylamino-benzenesulfonyl)-1H-pyrrol-3-yl]-acrylamide] had an IC50 in data set [1] of 800 to 21600 nM. Compound `Nc1ccccc1NC(=O)/C=C/c1ccn(S(=O)(=O)c2ccc(-c3ccncc3)cc2)c1` [Compound 20, (E)-N-(2-Amino-phenyl)-3-[1-(4-pyridin-4-yl-benzenesulfonyl)-1H-pyrrol-3-yl]-acrylamide] gave a melting point of 244.2 to 246.5 °C. The compound further showed an IC50 in data set [1] of 70 to 5000 nM. For `O=C(/C=C/c1ccn(S(=O)(=O)c2ccc(CNCc3ccccc3)cc2)c1)NO` [Compound 13, (E)-3-{1-[4-(Benzylamino-methyl)-benzenesulfonyl]-1H-pyrrol-3-yl}-N-hydroxy-acrylamide], the IC50 in data set [1] is 70 to 5000 nM.
